# Experimental data from US12161609B2, “Composition and method for treating autism spectrum disorder (ASD) symptoms of paranoia with self isolation and/or aggression” (priority 2021, dated 2024).
# What was measured:
# [1] = test system: autistic patients; conditions: oxcarbazepine alone vs. placebo, 2011 to 2021; cited from earlier work
# [2] = test system: ASD aggression toward others or self and paranoia/social isolation; conditions: for loss of effectiveness (tachyphylaxis): after two years use; for aggression and self-injury: Example 1: ASD person (when on the combination); for aggression and self-injury / paranoia/social isolation behavior: combination dosed twice daily as in TABLE 1
Compound,loss of effectiveness (tachyphylaxis) ([2]; summary over the ASD subjects),aggression and self-injury [2],paranoia/social isolation behavior ([2]; Example 1: ASD person),further results
NC(=O)N1c2ccccc2CC(=O)c2ccccc21 [oxcarbazepine],,,,adverse effects in autistic subjects [1]: so many adverse effects in autistic subjects that they drop out of the study
Cc1nc2n(c(=O)c1CCN1CCC(c3noc4cc(F)ccc34)CC1)CCCC2 [risperidone],tachyphylactic loss of effectiveness,,,"self-injury behavior, aggression toward others and social isolation symptoms ([2]; Example 3: adult ASD, combination dosed early morning and after 5:00 pm): could no longer be successfully treated"
O=C1CCc2ccc(OCCCCN3CCN(c4cccc(Cl)c4Cl)CC3)cc2N1 [aripiprazole],tachyphylactic loss of effectiveness,successful alleviation of aggression,improvement in paranoia/social isolation behaviors,"dyskinesia / tardive dyskinesia and dystonias ([2]; Example 1: ASD person): developed tardive dyskinesia and dystonias; drug-induced hallucinations, aggression and paranoia ([2]; Example 1: within a half hour of taking the drug, after 1 and ½ years of use): induced hallucinations, severe aggression and paranoia; tardive dyskinesia / dystonic side effects ([2]; summary over the ASD subjects, long-term use (two years for the antipsychotics)): developed tardive dyskinesia"
CNCCC(Oc1ccc(C(F)(F)F)cc1)c1ccccc1 (stereo not drawn) [fluoxetine],,self-injury slightly decreased,remained paranoid,ability to attend school ([2]; Example 1: ASD person): unable to attend schooling
